Where two headings read alike, the source gives them in different places.
Columns and labels:
Format in all cases: in vivo, human
[1] = system: subjects with idiopathic hypersomnia (IH); experiment: Part 6 IH: Karolinska Sleepiness Scale (KSS); conditions: for Change From Day −1 in Average Karolinska Sleepiness Scale, LSM difference vs placebo: N = 8; for Change From Day −1 in Average Karolinska Sleepiness Scale, LSM: N = 8, average of 1, 2, 4, 6, 8 h
Method: At points within the study, subjects were asked to rate their sleepiness using the KSS with regard to the level of sleepiness they experienced over the past 5 minutes.
The KSS is a validated, self-reported outcome measure of subjective sleepiness. The KSS was developed as a one-dimensional measure of sleepiness and has been validated against assessments like EEG and electrooculography activity (Akerstedt and Gillberg 1990). The KSS is comprised of a single question that asks the subject to rate their sleepiness in the immediately preceding 5 minutes on a 9-point scale where 1=extremely alert and 9=very sleepy, great effort to keep awake, fighting sleep. The KSS takes approximately 10 to 15 seconds to complete. Thus, the KSS is well suited for repeated measurement at short intervals as it assesses situational sleepiness within a short timeframe.
The PD parameters in the POC evaluation (e.g., changes from baseline in sleep latency on MWT, number of errors on SART and level of sleepiness on KSS at matched time points) were summarized using descriptive statistics for each time point by dose level.

[2] = Part 3 relative bioavailability (tablet vs powder-in-capsule) with food effect: plasma PK, 10 mg; conditions: for increase of peak plasma concentration, fed vs fasted: 10 mg tablet; for AUC(0-inf) / half-life / Cmax / Tmax: human, plasma, oral
Method: Part 3 compared the relative bioavailability (RelBA) of Compound A between a tablet formulation and the powder-in-capsule formulation. In addition, the food effect (FE) on the bioavailability of Compound A was assessed following administration of tablet formulation. Dose levels were as follows:
The Part 3 (RelBA with FE) evaluation was conducted using a 2-sequence, 3-period crossover study design in approximately 12 subjects. Subjects in Part 3 were randomized 1:1 to receive 1 of 2 sequences consisting of 3 periods with up to 72 hours of washout between treatments. The first 2 periods were dosed under fasted state and the third period was dosed in a fed state (high-fat meal).
Sequence 1 began with powder-in-capsule formulation in Period 1 (fasted), followed by tablet formulation in Period 2 (fasted) and tablet formulation in Period 3 (fed). Sequence 2 began with tablet formulation in Period 1 (fasted), followed by powder-in-capsule formulation in Period 2 (fasted) and tablet formulation in Period 3 (fed).
In treatment period(s) under the fed condition, following overnight fast, all subjects were given a high-fat breakfast. Within 30 minutes of starting the consumption of the breakfast, the assigned treatment was administered. […] There was a 72-hour washout period between the treatments.
Relative bioavailability analysis: A mixed effects model was used to evaluate the effect of a tablet formulation on the PK of Compound A. The primary PK parameters, namely, Cmax, AUC0-t, and […], were logarithmically transformed and used as the dependent variable, with treatment (tablet formulation or powder-in-capsule) as a fixed effect, and subject as a random effect. The ratio of the geometric means of the 2 treatments was obtained from the analysis, and a 2-sided 90% CI for the ratio was estimated. In this comparison, the same dose level of Compound A administered under tablet formulation is the test and powder-in-capsule is the reference. Thus, the comparison of interest is as follows: Fasted in new formulation (Test) vs Fasted in powder-in-capsule (Reference).
Food effect analysis: A mixed effects model was used to evaluate the effect of a high-fat, high caloric meal on the PK of Compound A in the tablet formulation. The primary PK parameters, namely, Cmax, AUC0-t, and AUC0-∞, were logarithmically transformed and used as the dependent variable, with treatment (fed or fasted) as a fixed effect, and subject as a random effect. The ratio of the geometric means of the 2 treatments was obtained from the analysis, and a 2-sided 90% CI for the ratio was estimated. In this comparison, the same dose level of Compound A administered under fed conditions is the test and Compound A administered under fasted conditions is the reference. Thus, the comparison of interest is as follows: Fed a high-fat meal in tablet formulation (Test) vs Fasted in tablet formulation (Reference).
Food effect was studied following a high fat (cohort 1) and low fat (cohort 2) meal. Both cohorts were completed in independent studies. For cohort 1, a high-fat meal was served consisting of 800-1,000 total calories with 150 calories from protein, 250 calories from carbohydrates, 500-600 calories from fat (≥50 percent of calories from fat). For cohort 2, a low-fat meal was served consisting of 400-500 total calories with 100-125 calories from fat (25 percent of calories from fat).

[3] = Part 5 NT2: plasma pharmacokinetics, single doses; conditions: for Cmax / AUC(0-t) / Tmax: human, oral; for Cmax / AUC(0-t): geometric mean; for AUC(0-t): read-out: AUC0-24; for Tmax: plasma
Method: Treatments were administered under fasted state. Dose levels were as follows:
Subjects were randomized to 1 of 4 sequences.
Blood samples (up to 5 mL per sample) were collected for PK analysis of Compound A and its metabolite(s). The actual time of sample collection was recorded. The PK samples of the subjects randomized to placebo treatment were not analyzed. Any remaining plasma PK samples were used to explore the presence of any additional metabolites and/or biomarkers.
Plasma and urine concentrations of Compound A and its metabolite(s) were measured using a validated high-performance liquid chromatography with tandem mass spectrometry.
The PK population was used for summaries of plasma Compound A and its metabolite(s) concentrations and for analyses, summaries, and listing of PK parameters. Dose proportionality for Cmax, AUC0-t, and AUC0-∞ was evaluated using a linear model of logarithmically transformed values to assess the slope parameter, and the 95% CI for the slope was estimated. Where a 95% CI of the slope includes 1, it was considered as evidence of dose proportionality for that PK parameter.

[4] = 10 mg, 10 mg Capsule (Fasted), Cohort 1, N = 9
[5] = 10 mg, 10 mg Tablet (Fasted), Cohort 1, N = 8
[6] = 10 mg, 10 mg Tablet (Fasted), Cohort 2
[7] = 10 mg, 10 mg Tablet (Fasted), Cohort 2, N = 8
[8] = 10 mg, 10 mg Tablet (Fed, high-fat), Cohort 1
[9] = 10 mg, 10 mg Tablet (Fed, low-fat), Cohort 2
[10] = 10 mg, 10 mg Tablet (Fed, low-fat), Cohort 2, N = 10

For CS(=O)(=O)N[C@H]1CCCN2C(=O)COc3ccccc3C3CCC(CC3)OCC12 (stereo partly drawn) [Compound A, N-[(4S,4aR,7α,10α)-1,2,3,4,4a,5,7,8,9,10,16,17-dodecahydro-17-oxo-7,10-ethanopyrido[1,2-d][1,7,4]benzodioxaazacyclotridecin-4-yl]methanesulfonamide], the “LS mean difference vs placebo in change from Day −1, average KSS” value (“LS mean difference vs placebo in change” for short) ([1]; 5 mg) was −1.08, the “Change From Day −1 in Average Karolinska Sleepiness Scale, LSM difference vs placebo” value ([1]; 5 mg) was −1.08 and the “Change From Day −1 in Average Karolinska Sleepiness Scale, LSM” value ([1]; 5 mg) was −1.60. The “LS mean difference vs placebo in change” value ([1]; 12 mg) was −0.80, the “Change From Day −1 in Average Karolinska Sleepiness Scale, LSM difference vs placebo” value ([1]; 12 mg) was −0.80 and the “Change From Day −1 in Average Karolinska Sleepiness Scale, LSM” value ([1]; 12 mg) was −1.33. The “LS mean difference vs placebo in change” value ([1]; 25 mg) was −2.18, the “Change From Day −1 in Average Karolinska Sleepiness Scale, LSM difference vs placebo” value ([1]; 25 mg) was −2.18 and the “Change From Day −1 in Average Karolinska Sleepiness Scale, LSM” value ([1]; 25 mg) was −2.70. The “increase of peak plasma concentration, fed vs fasted” value ([2]; high-fat meal, Cohort 1) was 3 fold, the “increase of peak plasma concentration, fed vs fasted” value ([2]; low-fat meal, Cohort 2) was “approximately 2 fold” and the “AUC0-∞ ratio (tablet/capsule)” value ([2]; 10 mg, fasted) was 1.2. For the same compound, the “Cmax ratio (tablet Cmax/capsule Cmax)” value ([2]; 10 mg, fasted) was 0.9, the AUC(0-inf) [2, 4] was 124 ng·h/mL and the half-life [2, 4] was 648 min. It also gave a Cmax ([2]; 10 mg, 10 mg Capsule (Fasted), Cohort 1, geometric mean) of 11.8 ng/mL, a Tmax ([2]; 10 mg, 10 mg Capsule (Fasted), Cohort 1, median) of 2 h and an AUC(0-inf) [2, 5] of 144 ng·h/mL. For the same compound, the half-life [2, 5] was 660 min, the Cmax ([2]; 10 mg, 10 mg Tablet (Fasted), Cohort 1, geometric mean) was 10.8 ng/mL and the Tmax ([2]; 10 mg, 10 mg Tablet (Fasted), Cohort 1, median) was 3.5 h. For the same compound, the Cmax [2, 6] was 14.2 ng/mL, the Tmax [2, 6] was 2.5 h and the AUC(0-inf) [2, 7] was 189 ng·h/mL. It also gave a half-life [2, 7] of 553 min, an AUC(0-inf) [2, 8] of 140 ng·h/mL and a Cmax [2, 8] of 30.1 ng/mL. It also gave a half-life [2, 8] of 168 min, a Tmax ([2]; 10 mg, 10 mg Tablet (Fed, high-fat), Cohort 1, median) of 3.5 h and a Cmax [2, 9] of 32.1 ng/mL. For the same compound, the Tmax [2, 9] was 3.01 h, the AUC(0-inf) [2, 10] was 180 ng·h/mL and the half-life [2, 10] was 581 min. The “fold change in AUC and Cmax for 5-fold change in dose” value ([3]; NT2 patients, 5 to 25 mg) was “approximately 3 fold”, the Cmax ([3]; 5 mg, NT2, plasma, n = 8) was 13.4 ng/mL and the AUC(0-t) ([3]; 5 mg, NT2, plasma, n = 8) was 78.1 ng·h/mL. It also gave a Cmax ([3]; 12 mg, NT2, plasma, n = 8) of 24 ng/mL, an AUC(0-t) ([3]; 12 mg, NT2, plasma, n = 8) of 185 ng·h/mL and a Cmax ([3]; 25 mg, NT2, plasma, N = 9) of 38 ng/mL. The AUC(0-t) ([3]; 25 mg, NT2, plasma, N = 9) was 231 ng·h/mL, the Tmax ([3]; 5 mg, NT2, plasma, median, n = 8, read-out: Tmax) was 1.75 h and the Tmax ([3]; 12 mg, NT2, plasma, median, n = 8, read-out: Tmax) was 2 h. It also gave a Tmax ([3]; 25 mg, NT2, plasma, median, N = 9, read-out: Tmax) of 3 h and a Tmax ([3]; 25 mg, NT2 patients, 5, 12, 25 mg, read-out: median tmax, range across doses) of 1.75 to 3 h.

— patent publication US20250186405A1, “Compound For Use In Treating Narcolepsy” (Alkermes, Inc., priority 2023, published 2025)
